In patent publication US20110060017A1, “NOVEL 1,2,3-TRIAZOLE DERIVATIVES USEFUL AS MODULATORS OF NICOTINIC ACETYLCHOLINE RECEPTORS” (Neurosearch A/S, priority 2008, published 2011):

Columns and labels:
[1] = molecular target: T1, wild-type nAChR α7 receptors (Homo sapiens, UniProt P36544); experiment: Positive modulation of acetylcholine-induced nAChR α7 currents in Xenopus laevis oocytes (two-electrode voltage clamp); assay type: cell-based
T1 construct: expressed in transfected cells; host or cells: Xenopus laevis oocytes
T1 sequence (P36544 23-502): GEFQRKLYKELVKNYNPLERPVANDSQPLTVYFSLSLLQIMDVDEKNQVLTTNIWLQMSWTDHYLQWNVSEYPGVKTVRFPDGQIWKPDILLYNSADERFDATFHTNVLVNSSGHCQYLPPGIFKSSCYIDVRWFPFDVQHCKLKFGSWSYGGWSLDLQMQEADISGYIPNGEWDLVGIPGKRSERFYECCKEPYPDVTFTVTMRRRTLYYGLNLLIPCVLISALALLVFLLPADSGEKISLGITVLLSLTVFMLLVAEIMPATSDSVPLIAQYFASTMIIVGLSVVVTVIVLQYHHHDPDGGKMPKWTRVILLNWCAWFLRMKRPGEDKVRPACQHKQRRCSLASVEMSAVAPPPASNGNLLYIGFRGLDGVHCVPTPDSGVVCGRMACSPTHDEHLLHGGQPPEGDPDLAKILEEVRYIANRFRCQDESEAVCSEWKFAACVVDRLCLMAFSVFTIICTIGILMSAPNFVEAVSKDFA
Procedure: In this example the positive modulation of wild-type nAChR α7 receptors by Compound 4 (i.e. 4-[5-Amino-4-(2,4-dichloro-phenyl)-[1,2,3]triazol-1-ylmethyl]phenol; FIGS. 1A and 1B) was determined using nAChR α7 receptors heterologously expressed in Xenopus laevis oocytes.
The electrical current through the nAChR α7 channel was measured using conventional two-electrode voltage clamp and nAChR α7 currents were activated by applying pulses of agonist-containing solution onto the nAChR α7 expressing oocyte.
In brief, the oocytes were placed in a recording chambers and continuously super-fused with an Oocyte Ringer (OR) solution containing 90 mM NaCl, 2.5 mM KCl, 2.5 mM CaCl2, 1 mM MgCl2 and 5 mM HEPES (pH adjusted to 7.4). The oocytes were clamped at −60 mV and currents were induced by applying 20 s pulses of 100 μM acetylcholine dissolved in OR. The intervals between the acetylcholine applications were 5 minutes, during which the oocytes were washed with OR. The first three applications were control applications to insure a constant response level of 100 μM acetylcholine.
The positive modulation in the presence of Compound 4 was calculated as (test-control)/control*100% and the concentration response curve for this positive modulation was fitted to the sigmoidal logistic equation: I=Imax/(1+(EC50/[compound])^n), where Imax represents the maximal modulation of the control response, EC50 is the concentration causing a half maximal response, and n is the slope coefficient.

Row | SMILES | melting point | Imax, maximal modulation of the acetylcholine response ([1]; 100 μM acetylcholine, (test-control)/control*100%, Xenopus laevis oocytes, 0.01-31.6 μM compound) | EC50 ([1]; 100 μM acetylcholine, nAChR α7 expressed in Xenopus laevis oocytes, clamped at −60 mV, 0.01-31.6 μM compound, read-out: EC50 for positive modulation of acetylcholine responses) | effect on acetylcholine-induced current amplitude ([1]; 0.01-31.6 μM compound applied 30 s before and during 100 μM acetylcholine)
1 | COc1ccc(Cn2nnc(-c3ccc(Cl)cc3Cl)c2N)cc1 [Compound 1, 5-(2,4-Dichloro-phenyl)-3-(4-methoxy-benzyl)-3H-[1,2,3]triazol-4-ylamine] | 134.4 to 136.8 °C | – | – | –
2 | COc1ccc(-c2nnn(Cc3ccc(Cl)cc3Cl)c2N)cc1 [Compound 2, 3-(2,4-Dichloro-benzyl)-5-(4-methoxy-phenyl)-3H-[1,2,3]-triazol-4-ylamine] | 156.5 to 159 °C | – | – | –
3 | Nc1c(-c2ccc(Cl)cc2Cl)nnn1Cc1ccc(O)cc1 [Compound 4, 4-[5-Amino-4-(2,4-dichloro-phenyl)-[1,2,3]triazol-1-ylmethyl]-phenol] | 172.5 to 174.1 °C | 277% | 1100 nM | robust increase
4 | Nc1c(-c2ccc(C(F)(F)F)cc2F)nnn1Cc1ccc(S(N)(=O)=O)cc1 [Compound 5, 4-[5-Amino-4-(2-fluoro-4-trifluoromethyl-phenyl)-[1,2,3]-triazol-1-ylmethyl]-benzenesulfonamide] | 180.1 to 181.3 °C | – | – | –
5 | Nc1c(-c2ccc(Cl)cc2Cl)nnn1Cc1ccc(S(N)(=O)=O)cc1 [Compound 6, 4-[5-Amino-4-(2,4-dichloro-phenyl)-[1,2,3]-triazol-1-ylmethyl]-benzenesulfonamide] | 204 to 205.6 °C | – | – | –
6 | COc1ccc(Cn2nnc(-c3ccc(C(F)(F)F)cc3F)c2N)cc1 [Compound 7, 5-(2-Fluoro-4-trifluoromethyl-phenyl)-3-(4-methoxy-benzyl)-3H-[1,2,3]-triazol-4-ylamine] | 153.2 to 154.4 °C | – | – | –
7 | Nc1c(-c2ccc(C(F)(F)F)cc2F)nnn1Cc1ccc(O)cc1 [Compound 8, 4-[5-Amino-4-(2-fluoro-4-trifluoromethyl-phenyl)-[1,2,3]-triazol-1-ylmethyl]-phenol] | 168.2 to 169.5 °C | – | – | –
